Measurements: US20240391936A1, “TETRAHYDROTHIENO PYRIDINE DERIVATIVES AS DDRS INHIBITORS” (CHIESI FARMACEUTICI S.P.A., priority 2021, published 2024)

Key:
DDR1 [1] = target: T1, DDR1 (Homo sapiens, UniProt Q08345); assay: DDR1 binding assay (LanthaScreen Europium Kinase Binding assay); design: purchased Carna Biosciences; details: binding assay, 5 nM DDR1, 20 nM Kinase Tracer 178; Ki from IC50 by Cheng-Prusoff; read-out: Ki DDR1
Outline: (§1)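 TR-FRET tracer-displacement format: 665/615 nm emission ratio (340 nm excitation) gave IC50 by 4-parameter fit, then Ki via Cheng-Prusoff. Each kinase at 5 nM with 2 nM Eu-anti-GST antibody and Tracer 178 (DDR1 20 nM, DDR2 10 nM), 1 h, room temperature, HEPES pH 7.5 buffer.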

DDR1 [2] = target: T1, DDR1; assay: DDR1 cell based assay (PathHunter U2OS DDR1 assay); design: host or cells: U2OS-DDR1 (PathHunter); details: U2OS-DDR1 cells, bovine Type II Collagen 20 μg/ml
Outline: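 Receptor activation measured by enzyme-fragment complementation luminescence in engineered U2OS cells. Compound added 30 min before overnight challenge with 20 μg/ml bovine collagen II; data scaled between vehicle and collagen-stimulated controls, IC50 derived by four-parameter variable-slope fitting.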

DDR2 [3] = target: T2, DDR2 (Homo sapiens, UniProt Q16832); assay: DDR2 binding assay (LanthaScreen Europium Kinase Binding assay); design: purchased Life Technologies; details: binding assay, 5 nM DDR2, 10 nM Kinase Tracer 178; Ki from IC50 by Cheng-Prusoff; read-out: Ki DDR2
T2 sequence (Q16832 22-855): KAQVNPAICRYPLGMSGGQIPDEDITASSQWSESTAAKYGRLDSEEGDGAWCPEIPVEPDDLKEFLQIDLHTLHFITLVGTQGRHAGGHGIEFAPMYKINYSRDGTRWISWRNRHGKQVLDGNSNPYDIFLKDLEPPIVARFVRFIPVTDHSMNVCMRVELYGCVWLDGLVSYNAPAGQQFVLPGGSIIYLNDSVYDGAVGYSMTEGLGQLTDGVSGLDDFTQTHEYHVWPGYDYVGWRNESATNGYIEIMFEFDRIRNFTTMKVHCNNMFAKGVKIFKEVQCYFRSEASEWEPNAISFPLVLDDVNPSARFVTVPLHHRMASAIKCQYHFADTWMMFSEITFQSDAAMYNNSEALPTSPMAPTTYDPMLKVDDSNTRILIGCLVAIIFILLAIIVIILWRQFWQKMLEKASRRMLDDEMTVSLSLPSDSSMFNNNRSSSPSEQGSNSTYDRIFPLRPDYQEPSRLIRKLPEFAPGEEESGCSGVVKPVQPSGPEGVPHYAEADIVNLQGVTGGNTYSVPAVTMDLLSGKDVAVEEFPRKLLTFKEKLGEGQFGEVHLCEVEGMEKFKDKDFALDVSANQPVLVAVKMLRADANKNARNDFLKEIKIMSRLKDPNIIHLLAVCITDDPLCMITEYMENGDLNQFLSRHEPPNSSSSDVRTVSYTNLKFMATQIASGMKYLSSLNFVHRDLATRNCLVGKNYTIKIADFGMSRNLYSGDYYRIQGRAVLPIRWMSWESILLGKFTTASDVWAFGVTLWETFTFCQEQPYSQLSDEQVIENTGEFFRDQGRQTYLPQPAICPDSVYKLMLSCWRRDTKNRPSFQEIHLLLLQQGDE
Outline: as §1

DDR2 [4] = target: T2, DDR2; assay: DDR2 cell based assay (phospho-ELISA in HEK293T-DDR2 recombinant cells); design: expressed in transfected cells; host or cells: HEK293T-DDR2 recombinant cells; details: bovine Type II Collagen 50 μg/ml
Description: The inhibition of DDR2 phosphorylation by compounds was evaluated in HEK293T-DDR2 recombinant cells by phospho-ELISA assay. Briefly, HEK293T-DDR2 cells were seeded in poly-D-lysine-coated 24-well plates at a density of 250.000 cells/well and incubated for 1.5 hours at 37° C. and 5% CO2 in DMEM+10% FBS. After that, the medium was changed to serum-free DMEM and cells were incubated for 3 hours. Then. test compounds were added at different concentrations 30 minutes before stimulation with bovine Type II Collagen at 50 μg/ml for further 3 hours. For DDR2 phospho-ELISA assay (DuoSet IC Human Phospho-DDR2; R&D Systems), protein extracts were obtained by adding 60 μl/well of lysis buffer prepared according to the manufacturer's instructions. Protein concentration in the samples was determined by BCA assay and the levels of phospho-DDR2 were determined following R&D Systems indications. Raw data were normalized to maximal inhibition control (0% for normalization) and positive control (100% for normalization; cells treated with […] collagen II) and IC50 parameters were calculated in GraphPad Prism 8.0 software, using sigmoidal dose-response curve fitting with variable slope.

T1 sequence (Q08345 19-913): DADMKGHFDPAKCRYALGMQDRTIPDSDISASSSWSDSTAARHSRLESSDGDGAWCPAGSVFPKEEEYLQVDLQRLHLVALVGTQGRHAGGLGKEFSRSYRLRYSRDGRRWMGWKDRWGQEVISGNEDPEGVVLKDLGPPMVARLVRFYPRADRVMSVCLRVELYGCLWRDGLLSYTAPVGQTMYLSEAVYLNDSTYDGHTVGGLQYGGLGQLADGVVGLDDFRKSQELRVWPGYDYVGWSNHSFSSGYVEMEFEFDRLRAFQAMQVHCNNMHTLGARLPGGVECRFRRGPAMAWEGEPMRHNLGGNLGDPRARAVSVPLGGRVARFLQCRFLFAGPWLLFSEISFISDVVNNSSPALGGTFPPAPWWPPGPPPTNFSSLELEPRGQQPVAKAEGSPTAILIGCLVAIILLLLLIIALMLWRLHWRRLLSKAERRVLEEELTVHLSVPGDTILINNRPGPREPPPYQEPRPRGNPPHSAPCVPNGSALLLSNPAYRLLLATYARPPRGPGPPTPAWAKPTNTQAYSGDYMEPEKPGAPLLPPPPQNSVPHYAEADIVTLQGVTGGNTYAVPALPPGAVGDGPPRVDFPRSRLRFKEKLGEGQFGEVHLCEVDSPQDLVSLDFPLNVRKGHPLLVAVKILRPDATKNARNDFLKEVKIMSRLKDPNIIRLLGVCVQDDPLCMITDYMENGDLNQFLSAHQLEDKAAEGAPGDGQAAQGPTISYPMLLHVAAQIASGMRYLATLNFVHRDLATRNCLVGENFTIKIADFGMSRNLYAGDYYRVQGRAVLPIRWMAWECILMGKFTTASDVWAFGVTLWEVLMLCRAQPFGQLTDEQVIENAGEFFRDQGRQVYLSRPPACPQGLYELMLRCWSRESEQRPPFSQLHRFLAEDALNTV

Row | SMILES | Ki (DDR1 [1]) [nM] | IC50 (DDR1 [2]) [nM] | Ki (DDR2 [3]) [nM] | IC50 (DDR2 [4]) [nM]
1 | CN1CCN(Cc2cc(NC(=O)c3csc4c3CCN(C(=O)c3cnc5ccccn35)C4)cc(C(F)(F)F)c2)CC1 [Example 1, 6-(imidazo[1,2-a]pyridine-3-carbonyl)-N-(3-((4-methylpiperazin-1-yl)methyl)-5-(trifluoromethyl)phenyl)-4,5,6,7-tetrahydrothieno[2,3-c]pyridine-3-carboxamide] | < 25 | 25 to 50 | < 25 | < 25
2 | O=C(Nc1cncc(C(F)(F)F)c1)c1csc2c1CCN(Cc1cnc3[nH]ncc3c1)C2 [Example 151, 6-(1H-pyrazolo[3,4-b]pyridin-5-ylmethyl)-N-[5-(trifluoromethyl)-3-pyridyl]-5,7-dihydro-4H-thieno[2,3-c]pyridine-3-carboxamide] | < 25 | < 25 | < 25 | < 25
3 | CC(C)(c1cc(NC(=O)c2csc3c2CCN(C(=O)c2cnc4ccccn24)C3)no1)C(F)(F)F [Example 9, 6-(imidazo[1,2-a]pyridine-3-carbonyl)-N-(5-(1,1,1-trifluoro-2-methylpropan-2-yl)isoxazol-3-yl)-4,5,6,7-tetrahydrothieno[2,3-c]pyridine-3-carboxamide] | < 25 | < 25 | < 25 | < 25
4 | O=C(Nc1cccc(C(F)(F)F)c1)c1csc2c1CCN(C(=O)c1cnc3cnccn13)C2 [Example 90, 6-(imidazo[1,2-a]pyrazine-3-carbonyl)-N-(3-(trifluoromethyl)phenyl)-4,5,6,7-tetrahydrothieno[2,3-c]pyridine-3-carboxamide] | < 25 | < 25 | < 25 | < 25
5 | Cc1cn(-c2cc(NC(=O)c3csc4c3CCN(C(=O)c3cnc5ccccn35)C4C)cc(C(F)(F)F)c2)cn1 (stereo not shown) [Example 98, 6-(imidazo[1,2-a]pyridine-3-carbonyl)-7-methyl-N-(3-(4-methyl-1H-imidazol-1-yl)-5-(trifluoromethyl)phenyl)-4,5,6,7-tetrahydrothieno[2,3-c]pyridine-3-carboxamide] | < 25 | < 25 | < 25 | < 25
6 | CN1CCN(c2ccc3ncc(C(=O)N4CCc5c(C(=O)Nc6cncc(C(F)(F)F)c6)csc5C4)n3c2)CC1 [Example 165, 6-(6-(4-methylpiperazin-1-yl)imidazo[1,2-a]pyridine-3-carbonyl)-N-(5-(trifluoromethyl)pyridin-3-yl)-4,5,6,7-tetrahydrothieno[2,3-c]pyridine-3-carboxamide] | < 25 | < 25 | < 25 | 25 to 50
7 | CC1c2scc(C(=O)Nc3cccc(C(F)(F)F)c3)c2CCN1Cc1cnc2cnccn12 (stereo not shown) [Example 103, 6-(imidazo[1,2-a]pyrazin-3-ylmethyl)-7-methyl-N-(3-(trifluoromethyl)phenyl)-4,5,6,7-tetrahydrothieno[2,3-c]pyridine-3-carboxamide] | < 25 | < 25 | < 25 | 25 to 50
8 | O=C(Nc1cccc(C(F)(F)F)c1)c1csc2c1CCN(C(=O)c1cnc3ccccn13)C2 [Example 7, 6-(imidazo[1,2-a]pyridine-3-carbonyl)-N-(3-(trifluoromethyl)phenyl)-4,5,6,7-tetrahydrothieno[2,3-c]pyridine-3-carboxamide] | < 25 | < 25 | < 25 | < 25

Second part, the compound after the results:

Row | Ki (DDR1 [1]) [nM] | IC50 (DDR1 [2]) [nM] | Ki (DDR2 [3]) [nM] | IC50 (DDR2 [4]) [nM] | SMILES
9 | < 25 | < 25 | < 25 | 50 to 80 | CC1Cc2c(C(=O)Nc3cccc(C(F)(F)F)c3)csc2CN1Cc1cnc2cnccn12 (single isomer, unassigned) [Example 104, 6-(imidazo[1,2-a]pyrazin-3-ylmethyl)-5-methyl-N-(3-(trifluoromethyl)phenyl)-4,5,6,7-tetrahydrothieno[2,3-c]pyridine-3-carboxamide]
10 | < 25 | < 25 | < 25 | 25 to 50 | CN(C)[C@@H]1CCN(Cc2cc(NC(=O)c3csc4c3CCN(Cc3cnc5[nH]ncc5c3)C4)cc(C(F)(F)F)c2)C1 [Example 158, (R)-6-((1H-pyrazolo[3,4-b]pyridin-5-yl)methyl)-N-(3-((3-(dimethylamino)pyrrolidin-1-yl)methyl)-5-(trifluoromethyl)phenyl)-4,5,6,7-tetrahydrothieno[2,3-c]pyridine-3-carboxamide]
11 | < 25 | < 25 | < 25 | 25 to 50 | O=C(Nc1cc(OCCN2CCOCC2)cc(C(F)(F)F)c1)c1csc2c1CCN(C(=O)c1cnc3ccccn13)C2 [Example 24, 6-(imidazo[1,2-a]pyridine-3-carbonyl)-N-(3-(2-morpholinoethoxy)-5-(trifluoromethyl)phenyl)-4,5,6,7-tetrahydrothieno[2,3-c]pyridine-3-carboxamide]
12 | < 25 | < 25 | < 25 | < 25 | O=C(Nc1cncc(C(F)(F)F)c1)c1csc2c1CCN(Cc1cnc3cnccn13)C2 [Example 153, 6-(imidazo[1,2-a]pyrazin-3-ylmethyl)-N-(5-(trifluoromethyl)pyridin-3-yl)-4,5,6,7-tetrahydrothieno[2,3-c]pyridine-3-carboxamide]
13 | < 25 | < 25 | < 25 | < 25 | Cc1n[nH]c2ncc(CN3CCc4c(C(=O)Nc5cc(C(C)(C)C)nn5C)csc4C3)cc12 [Example 78, N-(3-(tert-butyl)-1-methyl-1H-pyrazol-5-yl)-6-((3-methyl-1H-pyrazolo[3,4-b]pyridin-5-yl)methyl)-4,5,6,7-tetrahydrothieno[2,3-c]pyridine-3-carboxamide]
14 | < 25 | < 25 | < 25 | 25 to 50 | O=C(Nc1ccc(CN2CCOCC2)c(C(F)(F)F)c1)c1csc2c1CCN(C(=O)c1cnc3ccccn13)C2 [Example 23, 6-(imidazo[1,2-a]pyridine-3-carbonyl)-N-(4-(morpholinomethyl)-3-(trifluoromethyl)phenyl)-4,5,6,7-tetrahydrothieno[2,3-c]pyridine-3-carboxamide]
15 | < 25 | < 25 | < 25 | 25 to 50 | O=C(Nc1cccc(C(F)(F)F)c1)c1csc2c1CCN(Cc1cnc3[nH]ccc3c1)C2 [Example 69, 6-((1H-pyrrolo[2,3-b]pyridin-5-yl)methyl)-N-(3-(trifluoromethyl)phenyl)-4,5,6,7-tetrahydrothieno[2,3-c]pyridine-3-carboxamide]
16 | < 25 | < 25 | < 25 | < 25 | O=C(Nc1cccc(OC(F)(F)F)c1)c1csc2c1CCN(C(=O)c1cnc3ccccn13)C2 [Example 8, 6-(imidazo[1,2-a]pyridine-3-carbonyl)-N-(3-(trifluoromethoxy)phenyl)-4,5,6,7-tetrahydrothieno[2,3-c]pyridine-3-carboxamide]
